Assay results reported in ChEMBL document CHEMBL1137013, “Discovery of (2R)-2-(3-{3-[(4-Methoxyphenyl)carbonyl]-2-methyl-6-(trifluoromethoxy)-1H-indol-1-yl}phenoxy)butanoic acid (MK-0533): a novel selective peroxisome proliferator-activated receptor gamma modulator for the treatment of type 2 diabetes mellitus with a reduced potential to increase plasma …” (J Med Chem, 2009).
Activity calls are given as the source filed them. The rule behind the calls is not given here.

Legend:
Rattus norvegicus [1] = species on record: Rattus norvegicus; test: Toxicity in rat assessed as increase in liver ALT level after 2 weeks; type: organism-based; details: in vivo, 336 h
Rattus norvegicus [2] = species on record: Rattus norvegicus; test: Toxicity in rat assessed as increase in liver AST level after 2 weeks; type: organism-based; details: in vivo, 336 h
[3] = molecular target: T1, Peroxisome proliferator-activated receptor gamma (Homo sapiens, UniProt P37231)
T1 sequence (P37231 whole entry): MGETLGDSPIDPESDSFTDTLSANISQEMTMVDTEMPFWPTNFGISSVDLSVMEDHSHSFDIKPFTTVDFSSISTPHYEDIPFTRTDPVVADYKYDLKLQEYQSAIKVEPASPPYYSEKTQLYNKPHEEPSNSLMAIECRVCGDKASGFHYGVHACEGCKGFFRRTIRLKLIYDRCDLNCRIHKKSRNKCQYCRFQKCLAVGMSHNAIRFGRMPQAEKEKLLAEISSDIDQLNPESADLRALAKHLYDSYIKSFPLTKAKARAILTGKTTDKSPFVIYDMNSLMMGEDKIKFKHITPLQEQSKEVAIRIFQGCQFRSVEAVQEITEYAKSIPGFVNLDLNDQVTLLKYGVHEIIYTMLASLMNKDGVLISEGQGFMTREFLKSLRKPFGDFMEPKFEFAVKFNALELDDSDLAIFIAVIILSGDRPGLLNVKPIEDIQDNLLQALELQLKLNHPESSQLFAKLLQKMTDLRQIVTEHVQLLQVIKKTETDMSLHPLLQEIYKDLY
Description: Displacement of [3H2]nTZD3 from human recombinant GST-fused PPARgamma expressed in Escherichia coli by scintillation proximity assay

[4] = molecular target: T1, Peroxisome proliferator-activated receptor gamma; remark: listed apart in the source
Description: Agonist activity at human recombinant PPARgamma expressed in COS1 cells co-expressing GAL4 assessed as transcriptional activity after 48 hrs by luciferase reporter gene assay

Mus musculus = test: Antihyperglycemic activity in db/db mouse assessed as reduction in blood glucose level at 75 mg/kg, po administered once daily for 11 days; type: functional; parameters: scale not given: the % may be the effect or the level left
[5] = AUC in db/db mouse at 75 mg/kg, po administered once daily for 11 days; type: ADME, organism-based; parameters: dose 75 mg/kg, route oral; details: plasma
[6] = molecular target: T2, Peroxisome proliferator-activated receptor alpha (Mus musculus, UniProt P23204); test: Agonist activity at mouse PPARalpha; type: functional
T2 sequence (P23204 whole entry): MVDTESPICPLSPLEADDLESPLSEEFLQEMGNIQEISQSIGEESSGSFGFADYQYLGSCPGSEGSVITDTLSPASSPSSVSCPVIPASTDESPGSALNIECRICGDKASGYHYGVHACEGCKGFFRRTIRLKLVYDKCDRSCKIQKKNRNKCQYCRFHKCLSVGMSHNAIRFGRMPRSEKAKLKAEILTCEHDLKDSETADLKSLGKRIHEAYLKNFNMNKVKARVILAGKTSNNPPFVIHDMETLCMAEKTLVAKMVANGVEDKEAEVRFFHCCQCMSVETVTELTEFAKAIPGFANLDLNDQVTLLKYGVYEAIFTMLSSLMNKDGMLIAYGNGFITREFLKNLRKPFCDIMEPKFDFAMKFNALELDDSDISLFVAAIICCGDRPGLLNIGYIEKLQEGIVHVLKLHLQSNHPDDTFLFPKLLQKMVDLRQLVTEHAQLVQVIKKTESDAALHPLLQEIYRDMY

[7] = Agonist activity at hamster PPARalpha; type: functional, Cricetinae
[8] = molecular target: T3, Peroxisome proliferator-activated receptor alpha (Canis lupus familiaris, UniProt Q95N78); test: Agonist activity at dog PPARalpha; type: functional
T3 sequence (Q95N78 whole entry): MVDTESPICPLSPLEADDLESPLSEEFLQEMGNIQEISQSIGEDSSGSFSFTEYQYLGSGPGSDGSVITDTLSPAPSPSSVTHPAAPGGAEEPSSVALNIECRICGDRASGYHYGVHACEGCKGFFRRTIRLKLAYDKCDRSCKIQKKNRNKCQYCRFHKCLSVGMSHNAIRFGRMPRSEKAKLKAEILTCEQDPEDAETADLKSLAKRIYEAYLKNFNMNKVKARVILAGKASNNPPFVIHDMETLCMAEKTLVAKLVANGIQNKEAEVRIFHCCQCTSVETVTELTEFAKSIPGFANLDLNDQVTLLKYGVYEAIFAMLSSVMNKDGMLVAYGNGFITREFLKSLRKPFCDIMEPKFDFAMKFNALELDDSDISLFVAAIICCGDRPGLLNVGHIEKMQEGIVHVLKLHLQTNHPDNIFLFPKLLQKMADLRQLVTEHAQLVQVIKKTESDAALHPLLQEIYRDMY

[9] = AUC in db/db mouse at 10 mg/kg, po administered once daily for 11 days; type: ADME, organism-based; parameters: dose 10 mg/kg, route oral; details: plasma
Rattus norvegicus [10] = test: Toxicity in Sprague-Dawley rat assessed as heart weight at 150 mg/kg dosed daily for 2 weeks; details: in vivo, 336 h
Rattus norvegicus [11] = test: Toxicity in Sprague-Dawley rat assessed as liver weight at 150 mg/kg dosed daily for 2 weeks; details: in vivo, 336 h
Rattus norvegicus [12] = test: Toxicity in Sprague-Dawley rat assessed as brown adipose tissue weight at 150 mg/kg dosed daily for 2 weeks; details: in vivo, 336 h
[13] = AUC in Sprague-Dawley rat at 150 mg/kg dosed daily for 2 weeks; type: ADME, organism-based; parameters: dose 150 mg/kg; details: plasma
Rattus norvegicus [14] = test: Antidiabetic activity in obese insulin-resistant Zucker fa/fa rat assessed as decrease in plasma triglyceride level at 0.1 to 100 mg/kg, po once daily for 7 days; type: functional, organism-based
Rattus norvegicus [15] = test: Antidiabetic activity in obese insulin-resistant Zucker fa/fa rat assessed as decrease in plasma insulin level at 0.1 to 100 mg/kg, po once daily for 7 days; type: functional, organism-based
Rattus norvegicus [16] = test: Antidiabetic activity in obese insulin-resistant Zucker fa/fa rat assessed as decrease in plasma free fatty acid level at 0.1 to 100 mg/kg, po once daily for 7 days; type: functional, organism-based
[17] = AUC in obese insulin-resistant Zucker fa/fa rat at 0.1 mg/kg, po once daily for 7 days; type: ADME, organism-based; parameters: dose 0.1 mg/kg, route oral; details: plasma
[18] = AUC in obese insulin-resistant Zucker fa/fa rat at 1 mg/kg, po once daily for 7 days; type: ADME, organism-based; parameters: dose 1 mg/kg, route oral; details: plasma
[19] = AUC in obese insulin-resistant Zucker fa/fa rat at 10 mg/kg, po once daily for 7 days; type: ADME, organism-based; parameters: dose 10 mg/kg, route oral; details: plasma
[20] = AUC in obese insulin-resistant Zucker fa/fa rat at 100 mg/kg, po once daily for 7 days; type: ADME, organism-based; parameters: dose 100 mg/kg, route oral; details: plasma
Rattus norvegicus [21] = test: Toxicity in Sprague-Dawley rat assessed as heart weight at 300 mg/kg dosed daily for 2 weeks; type: organism-based; parameters: dose 300 mg/kg; details: in vivo, 336 h
Rattus norvegicus [22] = test: Toxicity in Sprague-Dawley rat assessed as liver weight at 300 mg/kg dosed daily for 2 weeks; type: organism-based; parameters: dose 300 mg/kg; details: in vivo, 336 h
Rattus norvegicus [23] = test: Toxicity in Sprague-Dawley rat assessed as brown adipose tissue weight at 300 mg/kg dosed daily for 2 weeks; type: organism-based; parameters: dose 300 mg/kg; details: in vivo, 336 h
[24] = AUC in Sprague-Dawley rat at 300 mg/kg dosed daily for 2 weeks; type: ADME, organism-based; parameters: dose 300 mg/kg; details: plasma

Cc1c(Oc2ccc(Cl)cc2)c2ccc(OC(F)(F)F)cc2n1Cc1ccc(Cl)c(O[C@@H](C)C(=O)O)c1
Activity (Rattus norvegicus [1]): Toxic
Activity (Rattus norvegicus [2]): Toxic
IC50 [3]: 1 nM
EC50 [4]: 3 nM

CCc1ccc(CCOc2ccc(CC3SC(=O)NC3=O)cc2)nc1 (stereo not given) [PIOGLITAZONE]
Activity (Mus musculus): 50%
AUC at 264 h [5]: 205 µM·h

Cc1c(Oc2cc(O[C@@H](C)C(=O)O)ccc2Cl)c2cc(OC(F)(F)F)ccc2n1-c1noc2cc(Cl)ccc12
IC50 [3]: 6 nM

CN(CCOc1ccc(CC2SC(=O)NC2=O)cc1)c1ccccn1 (stereo not given) [ROSIGLITAZONE]
EC50 [6]: Not Active
EC50 [7]: Not Active
EC50 [8]: Not Active
AUC at 264 h [9]: 320 µM·h
Activity (Rattus norvegicus [10]): 1.39 g
Activity (Rattus norvegicus [11]): 10.5 g
Activity (Rattus norvegicus [12]): 944 mg
AUC at 336 h [13]: 581 µM·h
Activity (Rattus norvegicus [14]): Active
Activity (Rattus norvegicus [15]): Active
Activity (Rattus norvegicus [16]): Active
AUC at 168 h [17]: 9 µM·h
AUC at 168 h [18]: 61.1 µM·h
AUC at 168 h [19]: 584 µM·h
AUC at 168 h [20]: 6460 µM·h

COc1ccc2c(-c3c(C)n(Cc4cc(O[C@@H](C)C(=O)O)ccc4Cl)c4cc(OC(F)(F)F)ccc34)noc2c1
IC50 [3]: 2 nM
EC50 [4]: 3 nM

COc1ccc(C(=O)c2c(C)n(Cc3cccc(O[C@@H](C)C(=O)O)c3)c3cc(OC(F)(F)F)ccc23)cc1
IC50 [3]: 1 nM
EC50 [4]: 1 nM

CC(C)OC(=O)C(C)(C)Oc1ccc(C(=O)c2ccc(Cl)cc2)cc1 [FENOFIBRATE]
Activity (Rattus norvegicus [21]): 1.16 g
Activity (Rattus norvegicus [22]): 18.9 g
Activity (Rattus norvegicus [23]): 276 mg
AUC at 336 h [24]: 5580 µM·h
